Read-outs that look alike come from different tables or passages of the source.
How the values were obtained:
[1] = Measurement method 1-1: in vitro skin-pore absorption into hair follicles and skin tissue; assay type: in vitro ADME, miniature pig
From the text: In measurement method 1-1, the skin of a model animal or the skin reconstructed from skin cells may be employed as a skin model. The model animal from which the skin is taken is not particularly limited, and pig, human, cattle, mouse, or rat are all potential donors. In measurement method 1-1, the skin of a hairy animal is usually employed in order to evaluate the penetrability of a drug through skin pores into hair follicles. Therefore, a mutated hairless animal is usually unsuitable for the model animal. […] Therefore, other than human, pig is preferably employed as a model animal.
The skin is not particularly limited, so long as the skin satisfies the above condition. For example, as described below in the Example, a skin model may be fixed onto a collagen gel.
The conditions for the application of the substance may be arbitrarily determined in accordance with the type of the substance or the object. Usually, the skin to which the substance is applied is incubated at about 37° C. (near the temperature of the human body) over a predetermined time period. The incubation time varies with the intended product form of the substance.
The portion at which the delivery amount of the substance is measured is limited to the region corresponding to the dermis of the skin, since in the region corresponding to the stratum corneum or epidermis of the skin, the hair follicle may be contaminated with epidermal tissue debris or excretions from the sebaceous glands, and thus the exact delivery amount of the substance is difficult to measure.
The method for measuring the delivery amount of the substance is not particularly limited. For example, liquid chromatography (including high-performance liquid chromatography), a fluorescent antibody technique using a fluorescence-labeled antibody, mass spectrometry, or a method using a radioisotope may be employed. Of these, liquid chromatography is preferable, in consideration of convenience.
In the evaluation test, 0.5% pantothenyl ethylether (90% ethanol product) was employed as a substance to be tested, and the skin of a miniature pig (Yucatan Micropig Skin Set: product of Charles River) was employed as a skin model.
The test sample (20 μl) was applied onto the skin sample comprising skin pores 14. The substance was applied onto a region (diameter: 1.5 cm) of the sample; i.e., within an assay ring to which silicon grease was applied. The resultant skin sample 10 was allowed to stand at 37° C. for 16 hours. After having being washed, the sample 10 was separated into the stratum corneum 11, the epidermis 12, and the dermis 13. Subsequently, hair follicles 15 were removed from the dermis 13, and the amount of pantothenyl ethylether contained in the follicles was measured, as a delivery amount per unit weight of the hair follicle, by means of liquid chromatography (NANOSPACE (product of Shiseido Co., Ltd.), eluent: (CH3CN:H2O=3:7), detection wavelength: 210 nm).
The skin sample 10 of the miniature pig was derived from the upper back and lower back (n=3).

[2] = in vivo
Procedure: (§1) (2) an in vivo quantification method (hereinafter referred to as “measurement method 1-2”) in which the amount of a substance (e.g., a drug) which is penetrated into the hair follicle is determined by applying the substance to the human scalp, removing the hair follicle from the scalp, and measuring the concentration of the substance which is delivered to the hair follicle.
(§2) In measurement method 1-2, a method for the application of a substance such as a drug to the human scalp may be arbitrarily determined in accordance with the characteristics or the intended product form of the substance.
(§3) After the substance is applied to a person participating in the test, several hair strands from the person are removed, and the thus-obtained hair follicles may be stored as hair shafts and/or outer root sheaths. The amount of the substance which is delivered to the subcutaneous portion of the hair shaft and/or the outer root sheath is measured, and the thus-obtained delivery amount of the substance may be employed as an index of the skin-pore absorbability of the substance.
(§4) The delivery amount of the substance may be measured in a manner similar to that of measurement method 1-1.
(§5) Thirty male panelists were enrolled in the test. […] Each of the test samples (0.5 ml for each) was applied to the scalp (area: 1 cm^2) of each male panelist, and then the scalp was left for 16 hours. […]

[3] = Measurement method 2: sebum transferability through keratinized silicone film into artificial sebum (Franz cell kit); assay type: in vitro ADME; conditions: 5% isostearyl alcohol, 2% minoxidil composition, 20 μl, 37° C., 24 hours, FIG. 12
From the text: The present invention also provides a method for the measurement of skin absorbability of a substance (hereinafter the method will be referred to as “measurement method 2”), which comprises bringing a substance into contact with a first surface of a film that mimics the skin surface layer, a second surface of the film being brought into contact with artificial sebum; and using the degree of transfer of the substance to the artificial sebum as an index, to thereby evaluate the sebum transferability of the substance.
The sebum transferability of a substance may be evaluated through the following procedure: the substance is applied to the stratum corneum side of the thin film, the opposite side of the stratum corneum side being brought into contact with the artificial sebum; the degree of transfer of the substance to the artificial sebum, for example, the amount of the substance transferred to the sebum per unit time, i.e., the amount of the substance contained in the sebum is measured; and the amount of the substance in the sebum is employed as an index, to thereby evaluate the sebum transferability of the substance.
1. […]
The test was carried out under the aforementioned conditions. […] The degree of transfer of minoxidil to the artificial sebum was evaluated on the basis of the concentration of minoxidil contained in the sebum after the elapse of a specified time period. […]

[4] = Measurement method 1-2: in vivo skin-pore absorption, human scalp hair follicles; conditions: 5% isostearyl alcohol, 1% pantothenyl ethylether, 0.5 ml on scalp, 16 hours, vs control, FIG. 8
Procedure: as §1, §2, §3, §4, §5

Row | skin-pore absorption of pantothenyl ethylether ([1]; 1% terpene refreshing agent, 0.5% pantothenyl ethylether, vs control, FIGS. 11A and 11B) | skin-pore absorption of pantothenyl ethylether [2] | skin-pore absorption of minoxidil (concentration delivered to the hair follicles) ([1]; 5% isostearyl alcohol compared with 5% amine oxide composition, 0.5% minoxidil, FIG. 9B) | skin-pore absorption of β-glycyrrhetinic acid (concentration delivered to the hair follicles) ([1]; 5% isostearyl alcohol compared with 5% amine oxide composition, 0.5% β-glycyrrhetinic acid, FIG. 9A) | concentration of pantothenyl ethylether delivered to hair follicles ([1]; 5% isostearyl alcohol composition vs control, 0.5% pantothenyl ethylether, 20 μl, 37° C., 16 hours, FIG. 4) | concentration of pantothenyl ethylether delivered to the stratum corneum ([1]; 5% isostearyl alcohol composition vs control, FIG. 5A) | concentration of pantothenyl ethylether delivered to the epidermis ([1]; 5% isostearyl alcohol composition vs control, FIG. 5B) | concentration of pantothenyl ethylether delivered to the dermis ([1]; 5% isostearyl alcohol composition vs control, FIG. 5C) | sebum transferability of minoxidil (concentration of minoxidil in the artificial sebum) [3] | concentration of pantothenyl ethylether delivered to the hair follicles (hair shafts and outer root sheaths) [4] | Structure (SMILES)
1 | accelerates | accelerates |  |  |  |  |  |  |  |  | CC12CCC(CC1=O)C2(C)C (stereo not shown) [camphor]
2 |  |  | accelerates | accelerates | increases significantly | decreased | decreased | slightly increased | enhances | increases | CC(C)CCCCCCCCCCCCCCCO [isostearyl alcohol]

— patent US7799319B2, “Method for measuring skin absorbability” (Shiseido Company, Ltd., priority 2000, dated 2010)
